Assay results taken from patent publication US20250188093A1, “TYK2 INHIBITORS AND USES THEREOF” (Alumis Inc., priority 2022, published 2025).

Key:
[1] = tested on: IFNa, PBMCs, p-STAT5; assay: INFα induced pSTAT5 in human PBMC; format: cell-based; conditions: 0.25 h, IFNa 5000 units/ml, 15 minutes
Description: Fresh Human PBMCs were resuspended in RPMI 1640 medium with 10% FBS. Cells were seeded in a round bottom 96-well plate at the concentration of 200,000 cells/well. A 10-point dilution series of test compound (top dose 10 uM, 1:5 dilution) was added to the well using the liquid dispenser (Tecan D300e) and incubated for 1 hour at 37 C. Then human INFα recombinant protein (R&D Systems) was added to the well at the final concentration of 5000 units/ml and incubated for 15 minutes at 37 C. Cell lysates were prepared and analyzed by Phospho STAT5 (Tyr693) Kit (Meso Scale Discovery) following manufacturer's protocol.
For calculation of the inhibition rate, the relative pSTAT5 signal of each well=pSTAT5 signal of each well−the average pSTAT5 signal of baseline.
The inhibition %=(the average pSTAT5 signal of INFα treatment wells−the relative of pSTAT5 signal in each compound containing well)/the average pSTAT5 signal of INFα treatment wells*100%
The curve was plotted as the inhibition % (y-axis) vs. compounds concentration (x-axis) and is fitted with log (inhibitor) vs. normalized response—Variable slope by GraphPad Prism7.0.

[2] = target: T1, JAK2 JH1 (Homo sapiens, UniProt O60674); assay: KINOMEscan binding, JAK2 JH1
T1 construct: JAK2 JH1

[3] = target: T2, JAK2 JH2 (Homo sapiens, UniProt O60674); assay: KINOMEscan binding, JAK2 JH2
T2 construct: JAK2 JH2

[4] = target: T3, human TYK2 (JH2domain-pseudokinase) (Homo sapiens, UniProt P29597); assay: TYK2 JH2 domain binding assay (KINOMEscan)
T3 construct: host or cells: transiently transfected HEK293 cells; unpurified extract
Description: Binding constants for the compounds described herein against the JH2 domain were determined by the following protocol for a KINOMEscan® assay (DiscoveRx). A fusion protein of a partial length construct of human TYK2 (JH2domain-pseudokinase) (amino acids G556 to D888 based on reference sequence NP_003322.3) and the DNA binding domain of NFkB was expressed in transiently transfected HEK293 cells. From these HEK 293 cells, extracts were prepared in M-PER extraction buffer (Pierce) in the presence of Protease Inhibitor Cocktail Complete (Roche) and Phosphatase Inhibitor Cocktail Set II (Merck) per manufacturers' instructions. The TYK2 (JH2domain-pseudokinase) fusion protein was labeled with a chimeric double-stranded DNA tag containing the NFkB binding site fused to an amplicon for qPCR readout, which was added directly to the expression extract (the final concentration of DNA-tag in the binding reaction is 0.1 nM).
Streptavidin-coated magnetic beads (Dynal M280) were treated with a biotinylated small molecule ligand for 30 minutes at room temperature to generate affinity resins the binding assays. The liganded beads were blocked with excess biotin and washed with blocking buffer (SeaBlock (Pierce), 1% BSA, 0.05% Tween 20, 1 mM DTT) to remove unbound ligand and to reduce nonspecific binding.
The binding reaction was assembled by combining 16 μl of DNA-tagged kinase extract, 3.8 μl liganded affinity beads, and 0.18 μl test compound (PBS/0.05% Tween 20/10 mM DTT/0.1% BSA/2 μg/ml sonicated salmon sperm DNA)]. Extracts were used directly in binding assays without any enzyme purification steps at a ≥10,000-fold overall stock dilution (final DNA-tagged enzyme concentration <0.1 nM). Extracts were loaded with DNA-tag and diluted into the binding reaction in a two-step process. First extracts were diluted 1:100 in 1× binding buffer (PBS/0.05% Tween 20/10 mM DTT/0.1% BSA/2 μg/ml sonicated salmon sperm DNA) containing 10 nM DNA-tag. This dilution was allowed to equilibrate at room temperature for 15 minutes and then subsequently diluted 1:100 in 1× binding buffer. Test compounds were prepared as 111× stocks in 100% DMSO. Kds were determined using an 11-point 3-fold compound dilution series with three DMSO control points. All compounds for Kd measurements were distributed by acoustic transfer (non-contact dispensing) in 100% DMSO. The compounds were then diluted directly into the assays such that the final concentration of DMSO was 0.9%. All reactions were performed in polypropylene 384-well plates. Each was a final volume of 0.02 mL. Assays were incubated with shaking for 1 hour at room temperature. Then the beads were pelleted and washed with wash buffer (1×PBS, 0.05% Tween 20) to remove displaced kinase and test compound. The washed based were re-suspended in elution buffer (1×PBS, 0.05% Tween 20, 0.5 μM non-biotinylated affinity ligand) and incubated at room temperature with shaking for 30 minutes. The kinase concentration in the eluates was measured by qPCR. qPCR reactions were assembled by adding 2.5 μL of kinase eluate to 7.5 μL of qPCR master mix containing 0.15 μM amplicon primers and 0.15 μM amplicon probe. The qPCR protocol consisted of a 10 minute hot start at 95° C., followed by 35 cycles of 95° C. for 15 seconds, 60° C. for 1 minute.
Test compounds were prepared as 111× stocks in 100% DMSO. Kds were determined using an 11-point 3-fold compound dilution series with three DMSO control points. All compounds for Kd measurements were distributed by acoustic transfer (non-contact dispensing) in 100% DMSO. The compounds were then diluted directly into the assays such that the final concentration of DMSO was 0.9%. The Kds were determined using a compound top concentration of 30,000 nM. Kd measurements were performed in duplicate.
Binding constants (Kds) were calculated with a standard dose-response curve using the Hill equation: […]
The Hill Slope was set to −1. […]

[5] = tested on: IFNa, PBMCs, p-STAT3; assay: IFNa induced p-STAT3 in PBMCs; format: cell-based; conditions: PBMC; human PBMCs, IFNa stimulation
[6] = target: T4, JAK3 JH1 (Homo sapiens, UniProt P52333); assay: KINOMEscan binding, JAK3 JH1
T4 construct: JAK3 JH1

[7] = target: T5, JAK1 JH1 (Homo sapiens, UniProt P23458); assay: KINOMEscan binding, JAK1 JH1
T5 construct: JAK1 JH1

[8] = target: T6, TYK2 JH1 (Homo sapiens, UniProt P29597); assay: KINOMEscan binding, TYK2 JH1
T6 construct: TYK2 JH1
T6 sequence (P29597 897-1176 limits assumed): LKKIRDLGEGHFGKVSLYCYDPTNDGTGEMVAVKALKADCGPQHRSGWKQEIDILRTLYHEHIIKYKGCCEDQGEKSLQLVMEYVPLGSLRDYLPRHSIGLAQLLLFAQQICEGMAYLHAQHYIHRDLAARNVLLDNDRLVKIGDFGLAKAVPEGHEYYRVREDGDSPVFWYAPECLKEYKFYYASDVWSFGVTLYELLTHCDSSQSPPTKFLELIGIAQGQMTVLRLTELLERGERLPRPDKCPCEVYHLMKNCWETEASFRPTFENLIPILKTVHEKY

[9] = target: T7, JAK1 JH2 (Homo sapiens, UniProt P23458); assay: KINOMEscan binding, JAK1 JH2
T7 construct: JAK1 JH2
T7 sequence (P23458 583-855 limits assumed): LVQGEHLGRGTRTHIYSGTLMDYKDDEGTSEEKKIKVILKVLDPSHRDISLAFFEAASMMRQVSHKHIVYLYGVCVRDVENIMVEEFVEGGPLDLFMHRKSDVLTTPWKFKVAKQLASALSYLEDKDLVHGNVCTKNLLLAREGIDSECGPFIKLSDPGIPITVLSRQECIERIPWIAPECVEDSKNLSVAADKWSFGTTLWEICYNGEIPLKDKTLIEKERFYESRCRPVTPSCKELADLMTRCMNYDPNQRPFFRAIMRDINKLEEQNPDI

T1 sequence (O60674 849-1124 limits assumed): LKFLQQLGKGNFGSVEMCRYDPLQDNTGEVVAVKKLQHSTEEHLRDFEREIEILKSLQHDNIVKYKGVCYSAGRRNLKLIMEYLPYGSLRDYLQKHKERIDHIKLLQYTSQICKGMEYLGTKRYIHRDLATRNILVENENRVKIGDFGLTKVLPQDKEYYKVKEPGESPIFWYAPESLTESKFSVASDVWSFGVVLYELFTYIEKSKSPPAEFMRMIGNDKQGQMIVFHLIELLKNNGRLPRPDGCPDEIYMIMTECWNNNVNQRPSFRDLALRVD
T2 sequence (O60674 545-809 limits assumed): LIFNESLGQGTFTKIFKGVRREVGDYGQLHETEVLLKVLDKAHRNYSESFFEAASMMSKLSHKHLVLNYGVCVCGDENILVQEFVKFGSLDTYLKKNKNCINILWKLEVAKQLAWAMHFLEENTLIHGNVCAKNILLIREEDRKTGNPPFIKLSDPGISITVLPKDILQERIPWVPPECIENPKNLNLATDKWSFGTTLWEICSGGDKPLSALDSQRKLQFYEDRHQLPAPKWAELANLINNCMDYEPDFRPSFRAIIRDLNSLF
T5 sequence (P23458 875-1153 limits assumed): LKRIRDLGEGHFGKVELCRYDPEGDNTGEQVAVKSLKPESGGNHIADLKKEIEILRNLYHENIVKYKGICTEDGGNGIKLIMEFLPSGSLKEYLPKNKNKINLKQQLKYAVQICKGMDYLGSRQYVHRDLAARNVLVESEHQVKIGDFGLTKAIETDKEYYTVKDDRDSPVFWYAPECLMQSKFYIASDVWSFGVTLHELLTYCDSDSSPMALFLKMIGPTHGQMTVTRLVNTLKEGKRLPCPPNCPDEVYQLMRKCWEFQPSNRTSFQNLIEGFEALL
T4 sequence (P52333 822-1111 limits assumed): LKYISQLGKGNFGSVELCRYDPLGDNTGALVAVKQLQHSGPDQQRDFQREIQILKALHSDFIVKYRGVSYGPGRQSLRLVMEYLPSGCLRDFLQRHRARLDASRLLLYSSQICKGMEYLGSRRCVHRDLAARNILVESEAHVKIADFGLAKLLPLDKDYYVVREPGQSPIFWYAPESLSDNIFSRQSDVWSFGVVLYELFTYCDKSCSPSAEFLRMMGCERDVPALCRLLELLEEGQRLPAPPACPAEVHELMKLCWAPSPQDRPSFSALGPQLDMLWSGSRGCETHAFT
T3 sequence (P29597 556-888): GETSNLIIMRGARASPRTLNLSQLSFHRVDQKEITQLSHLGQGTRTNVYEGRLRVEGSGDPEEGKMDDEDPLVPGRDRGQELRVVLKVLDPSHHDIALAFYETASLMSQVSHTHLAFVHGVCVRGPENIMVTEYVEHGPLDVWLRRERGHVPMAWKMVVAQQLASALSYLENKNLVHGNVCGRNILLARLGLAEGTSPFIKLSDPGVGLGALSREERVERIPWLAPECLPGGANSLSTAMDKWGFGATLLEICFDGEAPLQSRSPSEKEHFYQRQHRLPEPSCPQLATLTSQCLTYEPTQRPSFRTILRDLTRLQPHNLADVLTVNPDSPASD

Row | Compound | Kd [2] [µM] | Kd [3] [µM] | Kd [4] [µM] | Kd [6] [µM] | Kd [7] [µM] | Kd [8] [µM] | Kd [9] [µM] | IC50 [1] [µM] | IC50 [5] [µM]
1 | CNc1cc2nc3c(cnn13)C(=O)N1CC[C@H](C1)OCc1cc(c3nnn(C)c3c1)N2 [Compound 44] | – | – | < 0.01 | – | – | ≥ 30 | 1 to 10 | – | –
2 | CNc1cc2nc3c(cnn13)C(=O)N1CC[C@@H](C1)OCc1cc(c3nnn(C)c3c1)N2 [Compound 45] | – | – | < 0.01 | – | – | ≥ 30 | 1 to 10 | – | –
3 | CNc1cc2nn3c(cnc13)C(=O)N[C@@H]1CCC[C@H]1OCc1cc(c3nnn(C)c3c1)N2 [Compound 49] | – | – | < 0.01 | – | – | ≥ 30 | 1 to 10 | – | –
4 | [2H]C1([2H])O[C@@H]2CCC[C@H]2NC(=O)c2cnc3c(NC)cc(nn23)Nc2cc1cc1c2nnn1C [Compound 50] | 10 to 30 | 1 to 10 | < 0.01 | 1 to 10 | ≥ 30 | ≥ 30 | 1 to 10 | – | –
5 | [2H]C1([2H])O[C@H]2CCC[C@H]2NC(=O)c2cnc3c(NC)cc(nn23)Nc2cc1cc1c2nnn1C [Compound 51] | ≥ 30 | 1 to 10 | < 0.01 | 10 to 30 | ≥ 30 | ≥ 30 | 0.01 to 1 | – | –
6 | (1^3E,1^4E,3^4E,6^1R,6^2R)-3^2-Methyl-1^7-(methylamino)-3^2H-5-oxa-2,7-diaza-1(5,3),3(4,6)-dipyrazolo[1,5-a]pyrimidina-6(1,2)-cyclopentanacyclooctaphan-8-one [Compound 10] | – | – | < 0.01 | – | – | ≥ 30 | 1 to 10 | – | –
7 | (1^3E,1^4E,6^1R,6^2R)-3^1-Methyl-1^7-(methylamino)-3^1H-5-oxa-2,7-diaza-1(5,3),3(4,6)-dipyrazolo[1,5-a]pyrimidina-6(1,2)-cyclopentanacyclooctaphan-8-one [Compound 2] | – | – | < 0.01 | – | – | ≥ 30 | 1 to 10 | – | –
8 | (1^3E,1^4E,6^1S,6^2R)-3^1-Methyl-1^7-(methylamino)-3^1H-5-oxa-2,7-diaza-1(5,3),3(4,6)-dipyrazolo[1,5-a]pyrimidina-6(1,2)-cyclopentanacyclooctaphan-8-one [Compound 11] | – | – | < 0.01 | – | – | ≥ 30 | 0.01 to 1 | – | –

The next lines start with results.

Row | Kd [2] [µM] | Kd [3] [µM] | Kd [4] [µM] | Kd [6] [µM] | Kd [7] [µM] | Kd [8] [µM] | Kd [9] [µM] | Compound | IC50 [1] [µM] | IC50 [5] [µM]
9 | ≥ 30 | 1 to 10 | < 0.01 | 10 to 30 | ≥ 30 | – | – | CNc1cc2nn3c(cnc13)C(=O)N[C@@H]1CCC[C@H]1OCc1cc(c3nnn(C)c3c1)N2 [Compound 1] | < 0.1 | < 0.1
10 | ≥ 30 | ≥ 30 | < 0.01 | ≥ 30 | ≥ 30 | ≥ 30 | 10 to 30 | CNc1cc2nn3c(cnc13)C(=O)N[C@@H]1CCC[C@H]1OCc1cc(c3c(c1)nnn3C)N2 [Compound 3] | – | –
11 | 1 to 10 | 1 to 10 | < 0.01 | 10 to 30 | ≥ 30 | 10 to 30 | 0.01 to 1 | CNc1cc2nn3c(cnc13)C(=O)N[C@@H]1CCC[C@H]1OCc1cc(c3nn(C)nc3c1)N2 [Compound 4, (1^5E,3^4E,6^1R,6^2R)-3^2-Methyl-1^8-(methylamino)-3^2H-5-oxa-2,7-diaza-1(6,3),3(4,6)-diimidazo[1,2-b]pyridazina-6(1,2)-cyclopentanacyclooctaphan-8-one] | < 0.1 | < 0.1
12 | ≥ 30 | 1 to 10 | < 0.01 | ≥ 30 | ≥ 30 | ≥ 30 | 0.01 to 1 | CNc1cc2nn3c(cnc13)C(=O)N[C@@H]1CCC[C@@H]1OCc1cc(c3nnn(C)c3c1)N2 [Compound 5] | – | –
13 | ≥ 30 | 1 to 10 | < 0.01 | ≥ 30 | ≥ 30 | ≥ 30 | 0.01 to 1 | CNc1cc2nn3c(cnc13)C(=O)N[C@@H]1CCC[C@@H]1OCc1cc(c3c(c1)nnn3C)N2 [Compound 6, (6^1S,6^2R,E)-3^1-Methyl-1^8-(methylamino)-3^1H-5-oxa-2,7-diaza-1(6,3),3(7,5)-diimidazo[1,2-b]pyridazina-6(1,2)-cyclopentanacyclooctaphan-8-one] | – | –
14 | ≥ 30 | 10 to 30 | < 0.01 | ≥ 30 | ≥ 30 | ≥ 30 | 0.01 to 1 | CNc1cc2nn3c(cnc13)C(=O)N[C@@H]1CCC[C@@H]1OCc1cc(c3nn(C)nc3c1)N2 [Compound 7] | – | –
15 | – | – | < 0.01 | – | – | 10 to 30 | 0.01 to 1 | CNc1cc2nc3c(cnn13)C(=O)N[C@@H]1CCC[C@H]1OCc1cc(c3nn(C)nc3c1)N2 [Compound 8] | – | –
16 | – | – | < 0.01 | – | – | ≥ 30 | 0.01 to 1 | CNc1cc2nc3c(cnn13)C(=O)N[C@@H]1CCC[C@@H]1OCc1cc(c3nnn(C)c3c1)N2 [Compound 9] | – | –
17 | – | – | < 0.01 | – | – | ≥ 30 | 10 to 30 | CNc1cc2nn3c(cnc13)Nc1cc(cc3c1ncn3C)COC1CCCC1NC2=O (stereo not shown) [Compound 12, (6^1R,6^2R,E)-3^1-Methyl-1^8-(methylamino)-3^1H-5-oxa-2,7-diaza-1(6,3)-imidazo[1,2-b]pyridazina-3(4,6)-benzo[d]imidazola-6(1,2)-cyclopentanacyclooctaphan-8-one] | – | –
